Test system: mini-explants from the dermoepidermal junction of the hoof
Assay: In vitro study of hoof laminar mini-explants pre-incubated with tirilazad, then Bothrops alternatus venom, as a model for laminitis; histopathology (H-E, PAS)
Format: cell-based
Protocol: An in vitro study was conducted to analyze the protective effects of tirilazad mesylate on cellular degeneration as a result of Bothrops alternatus snake venom as a model for laminitis. Explant tissue samples were obtained from the dermoepidermal junction of the hoof of the right forelimb under nervous system block without the need for euthanasia.
Under sterile conditions, laminar cuts (mini-explants) were made of each explant and the tissue washed with physiological solution. The mini-explants were pre-incubated for 5 hours with tirilazad and then for 24 hours with Bothrops venom. Culture medium was as follows: Dulbecco's […] (DMEM, GIBCO-Invitrogen) with 10% heat-inactivated fetal bovine serum (FBS, GIBCO-Invitrogen), L-Glutamine (29.2 mg/mL), Penicillin (10,000 units/mL), and Streptomycin (10,000 μg/mL, GIBCO-Invitrogen) as antibiotics.
Histopathology: Tissues were processed with classical histological techniques, e.g., cutting by microtome (Minot) and stained with hematoxylin-eosin (H-E) and Periodic Acid Schiff (PAS) stains.

[1] = Tirilazad 1 μM (5 hours pre-incubation) + venom 75 μg/ml (24 hours), listed as tirilazad
[2] = Tirilazad 1 μM, no venom, listed as tirilazad
[3] = Tirilazad 3 μM (5 hours pre-incubation) + venom 75 μg/ml (24 hours)
[4] = Tirilazad 3 μM, no venom, listed as tirilazad
[5] = Tirilazad 10 μM (5 hours pre-incubation) + venom 75 μg/ml (24 hours), listed as tirilazad
[6] = Tirilazad 10 μM, no venom, listed as tirilazad
[7] = Tirilazad 20 μM (5 hours pre-incubation) + venom 75 μg/ml (24 hours)

C[C@@H]1C[C@H]2[C@@H]3CCC4=CC(=O)C=C[C@]4(C)C3=CC[C@]2(C)[C@H]1C(=O)CN1CCN(c2cc(N3CCCC3)nc(N3CCCC3)n2)CC1 [Tirilazad, 16α-methyl-21-[4-[2,6-bis(1-pyrrolidinyl)-4-pyrimidinyl]-1-piperazinyl]pregna-1,4,9(11)-triene-3,20-dione]
Separation of Basement Membrane (Tirilazad 1 μM (5 hours pre-incubation) + venom 75 μg/ml (24 hours)): No | Cell Nuclei [1]: intense presence of altered epidermal cells | Pyknosis or Karyopyknosis [1]: with nuclear pyknosis | Separation of Basement Membrane [1]: did not show separation of the basement membrane | Pyknosis or Karyopyknosis (Tirilazad 1 μM, no venom): No | Separation of Basement Membrane (Tirilazad 1 μM, no venom): No | Cell Nuclei [2]: epidermal cells were normal and showed preserved cytoplasmic and nuclear structure | Separation of Basement Membrane [2]: did not show separation of the basement membrane | Cell Nuclei [3]: intense presence of altered epidermal cells | Pyknosis or Karyopyknosis [3]: nuclear pyknosis predominating | Separation of Basement Membrane [3]: slight separation of the basement membrane | Separation of Basement Membrane (Tirilazad 3 μM, no venom): No | Cell Nuclei [4]: slight epidermal cytoplasmic and nuclear alteration | Separation of Basement Membrane [4]: did not show separation of the basement membrane | Separation of Basement Membrane (Tirilazad 10 μM (5 hours pre-incubation) + venom 75 μg/ml (24 hours)): No | Cell Nuclei [5]: Moderate presence of altered epidermal cells | Pyknosis or Karyopyknosis [5]: moderate nuclear pyknosis | Separation of Basement Membrane [5]: did not show separation of the basement membrane | Pyknosis or Karyopyknosis (Tirilazad 10 μM, no venom): No | Separation of Basement Membrane (Tirilazad 10 μM, no venom): No | Cell Nuclei [6]: epidermal cells were normal and showed preserved cytoplasmic and nuclear structure | Separation of Basement Membrane [6]: did not show separation of the basement membrane | Cell Nuclei [7]: intense presence of altered epidermal cells | Pyknosis or Karyopyknosis [7]: intense nuclear pyknosis | Separation of Basement Membrane [7]: intense separation of the basement membrane | Cell Nuclei (Tirilazad 20 μM, no venom): epidermal cells were normal and showed preserved cytoplasmic and nuclear structure | Pyknosis or Karyopyknosis (Tirilazad 20 μM, no venom): No | Separation of Basement Membrane (Tirilazad 20 μM, no venom): intense separation of the basement membrane | effect on cellular structure in hoof tissue (overall conclusion of the explant study): provides a protective and/or therapeutic effect

Reference: patent publication US20250064834A1, “COMPOSITIONS AND METHODS FOR TREATMENT AND PREVENTION OF DISEASES UTILIZING TIRILAZAD SALTS” (priority 2022, published 2025)
